Experimental data: patent US12227500B2, “Substituted pyrrolo[2,3-b]pyridines for suppressing toxic endoplasmic reticulum stress” (THE TRUSTEES OF COLUMBIA UNIVERSITY IN THE CITY OF NEW YORK, priority 2018, dated 2025)
Where two headings read alike, the source gives them in different places.

Columns and labels:
[1] = target: T1, MLK1/MAP3K9 (Homo sapiens, UniProt P80192); assay: Radiolabeled ATP kinase assay (Reaction Biology Corp.), MLK1; format: biochemical; details: [Cmpd] 0.1 μM, 10 μM ATP
T1 construct: purchased Reaction Biology Corp
T1 sequence (P80192 whole entry): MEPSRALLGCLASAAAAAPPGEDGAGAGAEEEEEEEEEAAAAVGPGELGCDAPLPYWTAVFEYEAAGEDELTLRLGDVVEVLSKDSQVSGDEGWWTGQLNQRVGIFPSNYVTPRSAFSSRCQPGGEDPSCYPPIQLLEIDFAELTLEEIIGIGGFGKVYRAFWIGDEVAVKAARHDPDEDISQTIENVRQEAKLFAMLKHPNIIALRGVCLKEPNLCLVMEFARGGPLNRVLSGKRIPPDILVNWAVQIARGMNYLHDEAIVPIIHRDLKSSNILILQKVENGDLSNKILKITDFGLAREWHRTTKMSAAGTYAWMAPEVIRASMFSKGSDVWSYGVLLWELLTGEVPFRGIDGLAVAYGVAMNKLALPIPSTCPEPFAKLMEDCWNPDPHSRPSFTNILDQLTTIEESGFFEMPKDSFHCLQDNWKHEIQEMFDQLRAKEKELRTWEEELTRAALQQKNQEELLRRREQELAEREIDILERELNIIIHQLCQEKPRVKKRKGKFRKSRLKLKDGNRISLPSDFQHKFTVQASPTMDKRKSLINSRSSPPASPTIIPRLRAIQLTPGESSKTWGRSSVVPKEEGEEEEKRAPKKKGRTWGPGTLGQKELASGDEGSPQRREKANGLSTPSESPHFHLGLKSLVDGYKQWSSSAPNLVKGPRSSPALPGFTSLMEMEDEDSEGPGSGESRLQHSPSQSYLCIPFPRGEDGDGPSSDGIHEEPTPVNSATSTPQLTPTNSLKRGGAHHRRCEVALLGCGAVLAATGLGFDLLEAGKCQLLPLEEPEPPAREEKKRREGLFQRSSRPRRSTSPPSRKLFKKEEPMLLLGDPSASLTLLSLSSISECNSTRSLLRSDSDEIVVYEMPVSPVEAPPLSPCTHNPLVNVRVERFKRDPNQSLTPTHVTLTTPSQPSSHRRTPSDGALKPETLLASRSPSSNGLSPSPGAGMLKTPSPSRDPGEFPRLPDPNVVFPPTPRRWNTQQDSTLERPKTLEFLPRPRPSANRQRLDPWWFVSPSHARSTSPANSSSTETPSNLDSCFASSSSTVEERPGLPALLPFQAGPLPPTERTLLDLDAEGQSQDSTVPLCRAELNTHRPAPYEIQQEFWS
Protocol: (§1) Meanwhile, the same analogs were analyzed in a radiolabeled ATP assay (10 μM ATP; Reaction Biology Corp.) to compare the extent to which they could inhibit the activity of HGK, MLK1, or MLK3 in a cell-free environment (Table S3 and S4).

[2] = tested on: human ES motor neurons carrying the ALS-causing SOD1^A4V mutation; assay: cells; format: cell-based; details: for EC50 / viability at 1 µM / Emax: Homo sapiens, Neuron, 72 h; for EC50 / Emax: CPA 33 μM; for EC50: read-out: EC50; for viability at 1 µM: CPA (33 μM) + compound (1 μM), read-out: Motor Neuron Survival, % untreated; for Emax: read-out: Emax (MN survival % untreated)
Protocol: Next, survival assays were performed with all the analogs at once to generate a low-variability dataset. All compounds were evaluated at concentrations ranging from 0.1-3.0 μM (five-point dilution) in three technical replicates and two biological replicates.

[3] = target: T2, MLK3/MAP3K11 (Homo sapiens, UniProt Q16584); assay: Radiolabeled ATP kinase assay (Reaction Biology Corp.), MLK3; format: biochemical; details: [Cmpd] 0.1 μM; 10 μM ATP
T2 construct: purchased Reaction Biology Corp
T2 sequence (Q16584 whole entry): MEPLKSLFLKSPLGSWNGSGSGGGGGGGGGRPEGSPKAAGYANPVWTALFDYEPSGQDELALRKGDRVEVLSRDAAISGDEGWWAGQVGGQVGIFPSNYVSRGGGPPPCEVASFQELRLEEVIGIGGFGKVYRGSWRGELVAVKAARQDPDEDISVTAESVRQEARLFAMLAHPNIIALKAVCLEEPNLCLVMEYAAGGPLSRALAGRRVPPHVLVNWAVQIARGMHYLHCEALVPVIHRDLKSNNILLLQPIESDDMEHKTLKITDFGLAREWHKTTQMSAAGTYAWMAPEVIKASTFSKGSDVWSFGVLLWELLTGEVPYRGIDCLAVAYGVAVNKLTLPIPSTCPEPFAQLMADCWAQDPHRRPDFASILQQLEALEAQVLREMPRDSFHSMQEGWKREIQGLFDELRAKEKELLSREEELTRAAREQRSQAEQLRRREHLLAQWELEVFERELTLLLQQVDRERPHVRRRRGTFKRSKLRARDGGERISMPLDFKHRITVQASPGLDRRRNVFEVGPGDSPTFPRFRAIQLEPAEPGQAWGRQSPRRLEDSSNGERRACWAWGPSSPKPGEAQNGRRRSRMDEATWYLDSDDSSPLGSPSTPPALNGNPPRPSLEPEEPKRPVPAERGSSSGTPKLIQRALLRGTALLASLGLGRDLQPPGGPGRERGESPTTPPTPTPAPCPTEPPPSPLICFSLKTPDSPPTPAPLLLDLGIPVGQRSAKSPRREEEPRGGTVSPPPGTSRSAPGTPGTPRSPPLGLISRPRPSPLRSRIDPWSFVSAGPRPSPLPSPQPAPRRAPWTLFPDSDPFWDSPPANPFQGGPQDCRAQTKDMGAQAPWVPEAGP
Protocol: as §1

[4] = target: HGK/MAP4K4 (Homo sapiens, UniProt O95819); assay: Radiolabeled ATP kinase assay (Reaction Biology Corp.), HGK; format: biochemical; set-up: purchased Reaction Biology Corp; details: 10 μM ATP, read-out: % Enzyme Activity (relative to DMSO controls), HGK/MAP4K4, Data 1; for remaining activity at 0.025 µM: [Cmpd] 0.025 μM; for remaining activity at 0.1 µM: [Cmpd] 0.1 μM
Chain of HGK/MAP4K4 (O95819 whole entry): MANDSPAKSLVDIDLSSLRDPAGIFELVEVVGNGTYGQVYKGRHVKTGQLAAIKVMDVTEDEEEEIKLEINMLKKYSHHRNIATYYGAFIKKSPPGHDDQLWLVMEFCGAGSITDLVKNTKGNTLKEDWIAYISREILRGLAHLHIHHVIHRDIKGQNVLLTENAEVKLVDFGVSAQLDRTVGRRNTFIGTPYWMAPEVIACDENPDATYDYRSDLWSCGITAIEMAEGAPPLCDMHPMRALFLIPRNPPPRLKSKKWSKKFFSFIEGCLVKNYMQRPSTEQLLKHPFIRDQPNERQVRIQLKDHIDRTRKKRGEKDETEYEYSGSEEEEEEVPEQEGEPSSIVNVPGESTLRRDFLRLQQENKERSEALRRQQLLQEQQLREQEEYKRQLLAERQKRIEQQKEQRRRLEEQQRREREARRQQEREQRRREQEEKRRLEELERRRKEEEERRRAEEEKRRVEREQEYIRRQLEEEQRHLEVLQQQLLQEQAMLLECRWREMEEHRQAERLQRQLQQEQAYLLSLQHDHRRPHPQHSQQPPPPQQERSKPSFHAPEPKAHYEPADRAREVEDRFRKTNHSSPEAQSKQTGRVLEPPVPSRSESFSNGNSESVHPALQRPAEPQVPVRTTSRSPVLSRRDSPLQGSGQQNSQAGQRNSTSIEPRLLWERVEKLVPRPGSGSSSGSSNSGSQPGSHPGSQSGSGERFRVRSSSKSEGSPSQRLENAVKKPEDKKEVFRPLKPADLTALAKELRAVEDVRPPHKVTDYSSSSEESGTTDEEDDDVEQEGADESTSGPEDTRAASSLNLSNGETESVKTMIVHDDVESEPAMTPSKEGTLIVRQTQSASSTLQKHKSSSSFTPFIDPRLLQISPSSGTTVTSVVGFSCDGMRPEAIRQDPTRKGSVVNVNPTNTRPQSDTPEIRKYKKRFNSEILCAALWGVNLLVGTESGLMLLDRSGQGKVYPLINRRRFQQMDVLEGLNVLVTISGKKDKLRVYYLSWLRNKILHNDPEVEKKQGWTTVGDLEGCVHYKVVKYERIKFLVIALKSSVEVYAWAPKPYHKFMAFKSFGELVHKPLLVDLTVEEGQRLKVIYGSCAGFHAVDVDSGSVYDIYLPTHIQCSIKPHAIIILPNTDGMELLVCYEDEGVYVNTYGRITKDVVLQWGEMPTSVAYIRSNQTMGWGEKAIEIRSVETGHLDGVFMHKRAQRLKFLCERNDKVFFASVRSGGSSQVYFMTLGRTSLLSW
Protocol: as §1

[5] = read-out: % Enzyme Activity Remaining (relative to DMSO controls), MLK1/MAP3K9, Data 1
[6] = read-out: % Enzyme Activity Remaining (relative to DMSO controls), MLK1/MAP3K9, Data 2

| Compound | remaining activity at 0.1 µM [1, 5] [%] | remaining activity at 0.1 µM [1, 6] [%] | EC50 [2] [nM] | viability at 1 µM [2] [%] | Emax [2] [%] | % Enzyme Activity Remaining (relative to DMSO controls), MLK3/MAP3K11, Data 1 [3] [%] | % Enzyme Activity Remaining (relative to DMSO controls), MLK3/MAP3K11, Data 2 [3] [%] | remaining activity at 0.025 µM [4] [%] | remaining activity at 0.1 µM [4] [%] | rescue of MNs in the CPA survival assay ([2]; FIG. 9) |
| --- | --- | --- | --- | --- | --- | --- | --- | --- | --- | --- |
| CN1CCN(Cc2ccc(-c3cnc4[nH]cc(-c5ccc(NC(=O)NC6CCCCC6)cc5)c4c3)cc2)CC1 [Compound 7aw, 1-Cyclohexyl-3-(4-(5-(4-((4-methylpiperazin-1-yl)methyl)phenyl)-1H-pyrrolo[2,3-b]pyridin-3-yl)phenyl)urea] | 79.8 | 79.4 | 406 | 27.5 | 27.5 | 65.23 | 66.67 | 85.4 | 58.5 |  |
| COc1cc(-c2c[nH]c3ncc(-c4ccc(CN5CCN(C)CC5)cc4)cc23)cc(OC)c1OC [Compound 7ap, 5-(4-((4-Methylpiperazin-1-yl)methyl)phenyl)-3-(3,4,5-trimethoxyphenyl)-1H-pyrrolo[2,3-b]pyridine] | 54.2 | 52.8 |  |  |  | 70.05 | 68.91 | 35.6 | 6.76 |  |
| CN1CCN(Cc2ccc(-c3cnc4[nH]cc(-c5cccc(C(=O)O)c5)c4c3)cc2)CC1 [Compound 7j, 3-(5-(4-((4-Methylpiperazin-1-yl)methyl)phenyl)-1H-pyrrolo[2,3-b]pyridin-3-yl)benzoic acid] | 77.7 | 77.5 |  |  |  | 46.91 | 44.55 | 63.6 | 20.6 |  |
| CC(C)Oc1ccc(-c2c[nH]c3ncc(-c4ccc(CN5CCN(C)CC5)cc4)cc23)cc1 [Compound 7q, 3-(4-Isopropoxyphenyl)-5-(4-((4-methylpiperazin-1-yl)methyl)phenyl)-1H-pyrrolo[2,3-b]pyridine] | 94.1 | 95.4 | 740 | 20.6 | 21.5 | 91.91 | 89.69 |  |  |  |
| NG-25 [reference compound] |  |  |  |  |  |  |  |  |  | unable to rescue MNs |
| CN1C2CCC1CN(Cc1ccc(-c3cnc4[nH]cc(-c5ccc6[nH]ccc6c5)c4c3)cc1)C2 [Compound 12b, 3-(1H-Indol-5-yl)-5-(4-((8-methyl-3,8-diazabicyclo[3.2.1]octan-3-yl)methyl)phenyl)-1H-pyrrolo[2,3-b]pyridine] |  |  | 1960 | 25.2 | 72.6 |  |  | 69 | 34.5 |  |
| CC(C)(C)N1CCN(Cc2ccc(-c3cnc4[nH]cc(-c5cccc(F)c5)c4c3)cc2)CC1 [Compound 12j, 5-(4-((4-(tert-Butyl)piperazin-1-yl)methyl)phenyl)-3-(3-fluorophenyl)-1H-pyrrolo[2,3-b]pyridine] |  |  | 50 |  | 98.5 |  |  |  |  |  |
| CN1CCN(Cc2ccc(-c3cnc4[nH]cc(-c5cccc(O)c5)c4c3)cc2)CC1 [Compound 7r, 3-(5-(4-((4-Methylpiperazin-1-yl)methyl)phenyl)-1H-pyrrolo[2,3-b]pyridin-3-yl)phenol] | 56.2 | 58.6 |  |  |  | 38.87 | 39.87 | 4.88 | 1.23 |  |
| Cc1ccc(S(=O)(=O)n2cc(-c3ccc4[nH]ccc4c3)c3cc(-c4ccc(C=O)cc4)cnc32)cc1 [Compound 11, 4-(3-(1H-Indol-5-yl)-1-tosyl-1H-pyrrolo[2,3-b]pyridin-5-yl)benzaldehyde] | 95 | 95.5 |  |  |  | 93.68 | 88.60 | 102 | 85.5 |  |
| c1cc2cc(-c3c[nH]c4ncc(-c5ccc(CN6CC7CCC(C6)O7)cc5)cc34)ccc2[nH]1 [Compound 12a, 3-(4-(3-(1H-Indol-5-yl)-1H-pyrrolo[2,3-b]pyridin-5-yl)benzyl)-8-oxa-3-azabicyclo[3.2.1]octane] | 56.2 | 46.5 |  |  |  | 52.18 | 46.74 | 72.8 | 51.5 |  |
| CN1CCN(Cc2ccc(-c3cnc4[nH]cc(-c5cc(C(F)(F)F)cc(C(F)(F)F)c5)c4c3)cc2)CC1 [Compound 7aj, 3-(3,5-Bis(trifluoromethyl)phenyl)-5-(4-((4-methylpiperazin-1-yl)methyl)phenyl)-1H-pyrrolo[2,3-b]pyridine] | 96.4 | 92.6 |  |  |  | 95.75 | 93.75 | 103 | 86.6 |  |
| CN1CCN(Cc2ccc(-c3cnc4[nH]cc(-c5cc6ccccc6s5)c4c3)cc2)CC1 [Compound 7g, 3-(Benzo[b]thiophen-2-yl)-5-(4-((4-methylpiperazin-1-yl)methyl)phenyl)-1H-pyrrolo[2,3-b]pyridine] | 55.9 | 58.5 |  |  |  | 45.87 | 42.66 |  |  |  |
| Fc1cccc(-c2c[nH]c3ncc(-c4ccc(CN5CCC(N6CCCCC6)CC5)cc4)cc23)c1 [Compound 12g, 5-(4-([1,4′-Bipiperidin]-1′-ylmethyl)phenyl)-3-(3-fluorophenyl)-1H-pyrrolo[2,3-b]pyridine] |  |  | 50 |  | 89.3 |  |  |  |  |  |
| CN1CCN(Cc2ccc(-c3cnc4[nH]cc(-c5cc6ccccc6[nH]5)c4c3)cc2)CC1 [Compound 7a, 3-(1H-Indol-2-yl)-5-(4-((4-methylpiperazin-1-yl)methyl)phenyl)-1H-pyrrolo[2,3-b]pyridine] | 74.2 | 75.1 |  |  |  | 63.66 | 64.82 | 86.1 | 58.8 |  |
| CN1CC2CCC(C1)N2Cc1ccc(-c2cnc3[nH]cc(-c4ccc5[nH]ccc5c4)c3c2)cc1 [Compound 12c, 3-(1H-Indol-5-yl)-5-(4-((3-methyl-3,8-diazabicyclo[3.2.1]octan-8-yl)methyl)phenyl)-1H-pyrrolo[2,3-b]pyridine] |  |  | 694 | 43.7 | 43.7 |  |  | 92.7 | 84.2 |  |
| COc1ccc(-c2c[nH]c3ncc(-c4ccc(CN5CCN(C)CC5)cc4)cc23)cc1C [Compound 7aq, 3-(4-Methoxy-3-methylphenyl)-5-(4-((4-methylpiperazin-1-yl)methyl)phenyl)-1H-pyrrolo[2,3-b]pyridine] | 54.5 | 53.6 |  |  |  | 51.92 | 49.61 | 57.3 | 20 |  |
| CN1C2CCC1CN(Cc1ccc(-c3cnc4[nH]cc(-c5cccc6[nH]ncc56)c4c3)cc1)C2 [Compound 12d, 4-(5-(4-((8-Methyl-3,8-diazabicyclo[3.2.1]octan-3-yl)methyl)phenyl)-1H-pyrrolo[2,3-b]pyridin-3-yl)-1H-indazole] |  |  | 301 | 109 | 143 |  |  | 3.17 | -0.29 |  |
